According to the supplement of paper PMC10307832:

Legend:
Test in all cases: relative viability (nuclei count vs DMSO), 5 days (fraction); higher = more cells survive
[1] = test system: NCI-H1915
Method in brief: (§1)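 One day after seeding in 1536-well plates, lung cancer cell lines were dosed by pin tool. Dosing was either single-drug or a fixed anchor-drug dose plus five library-drug doses (not always all listed) in √10 steps. After 5 days, nuclei were stained in one fix-and-stain step and counted on 4× images, and relative viability is the nuclei count of treated wells over that of vehicle wells, given as the median of duplicate plates.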

[2] = test system: 201T
Method in brief: as §1

[3] = test system: NCI-H460
Method in brief: as §1

[4] = test system: NCI-H727
Method in brief: as §1

[5] = test system: NCI-H520
Method in brief: as §1

[6] = test system: NCI-H2087
Method in brief: as §1

[7] = test system: A-427
Method in brief: as §1

[8] = test system: CAL-12T
Method in brief: as §1

[9] = test system: NCI-H650
Method in brief: as §1

[10] = test system: NCI-H1651
Method in brief: as §1

[11] = test system: NCI-H2023
Method in brief: as §1

[12] = test system: ABC-1
Method in brief: as §1

[13] = test system: LC-2-ad
Method in brief: as §1

[14] = test system: NCI-H1650
Method in brief: as §1

[15] = test system: NCI-H661
Method in brief: as §1

[16] = test system: HCC-15
Method in brief: as §1

[17] = test system: NCI-H1944
Method in brief: as §1

[18] = test system: H3255
Method in brief: as §1

[19] = test system: PC-3 [JPC-3]
Method in brief: as §1

[20] = test system: NCI-H596
Method in brief: as §1

[21] = test system: NCI-H441
Method in brief: as §1

[22] = test system: BEN
Method in brief: as §1

[23] = test system: LCLC-97TM1
Method in brief: as §1

Compound `COc1cc(N2CCC(C(N)=O)CC2)ccc1Nc1nc(N)c(Cl)c(Nc2ccccc2S(=O)(=O)C(C)C)n1` [HG-5-88-01] + Cc1cc(Nc2cc(N3CCN(C)CC3)nc(Sc3ccc(NC(=O)C4CC4)cc3)n2)n[nH]1 [Tozasertib] (partner 0.1 µM) has a relative viability ([1]; first compound 0.04 µM) of 0.402, a relative viability ([1]; first compound 0.1265 µM) of 0.436 and a relative viability ([1]; first compound 0.4 µM) of 0.453. The relative viability ([1]; first compound 1.265 µM) was 0.429, the relative viability ([1]; first compound 4 µM) was 0.339 and the relative viability ([2]; first compound 0.04 µM) was 0.963. The relative viability ([2]; first compound 0.1265 µM) was 0.903, the relative viability ([2]; first compound 0.4 µM) was 0.939 and the relative viability ([2]; first compound 1.265 µM) was 0.871. The relative viability ([2]; first compound 4 µM) was 0.911, the relative viability ([3]; first compound 0.04 µM) was 0.722 and the relative viability ([3]; first compound 0.1265 µM) was 0.423. It also gave a relative viability ([3]; first compound 0.4 µM) of 0.255, a relative viability ([3]; first compound 1.265 µM) of 0.0498 and a relative viability ([3]; first compound 4 µM) of 0.064. For the same compound, the relative viability ([4]; first compound 0.04 µM) was 0.594, the relative viability ([4]; first compound 0.1265 µM) was 0.665 and the relative viability ([4]; first compound 0.4 µM) was 0.582. For the same compound, the relative viability ([4]; first compound 1.265 µM) was 0.429, the relative viability ([4]; first compound 4 µM) was 0.429 and the relative viability ([5]; first compound 0.04 µM) was 0.457. For the same compound, the relative viability ([5]; first compound 0.1265 µM) was 0.433, the relative viability ([5]; first compound 0.4 µM) was 0.435 and the relative viability ([5]; first compound 1.265 µM) was 0.414. The relative viability ([5]; first compound 4 µM) was 0.452, the relative viability ([6]; first compound 0.04 µM) was 0.266 and the relative viability ([6]; first compound 0.1265 µM) was 0.203. It also gave a relative viability ([6]; first compound 0.4 µM) of 0.262, a relative viability ([6]; first compound 1.265 µM) of 0.22 and a relative viability ([6]; first compound 4 µM) of 0.14. It also gave a relative viability ([7]; first compound 0.04 µM) of 0.193, a relative viability ([7]; first compound 0.1265 µM) of 0.208 and a relative viability ([7]; first compound 0.4 µM) of 0.158. It also gave a relative viability ([7]; first compound 1.265 µM) of 0.184, a relative viability ([7]; first compound 4 µM) of 0.18 and a relative viability ([8]; first compound 0.04 µM) of 0.274. For the same compound, the relative viability ([8]; first compound 0.1265 µM) was 0.359, the relative viability ([8]; first compound 0.4 µM) was 0.289 and the relative viability ([8]; first compound 1.265 µM) was 0.199. It also gave a relative viability ([8]; first compound 4 µM) of 0.243, a relative viability ([9]; first compound 0.04 µM) of 0.765 and a relative viability ([9]; first compound 0.1265 µM) of 0.72. The relative viability ([9]; first compound 0.4 µM) was 0.594, the relative viability ([9]; first compound 1.265 µM) was 0.461 and the relative viability ([9]; first compound 4 µM) was 0.523. It also gave a relative viability ([10]; first compound 0.04 µM) of 0.71, a relative viability ([10]; first compound 0.1265 µM) of 0.745 and a relative viability ([10]; first compound 0.4 µM) of 0.7. For the same compound, the relative viability ([10]; first compound 1.265 µM) was 0.388, the relative viability ([10]; first compound 4 µM) was 0.455 and the relative viability ([11]; first compound 0.04 µM) was 0.35. The relative viability ([11]; first compound 0.1265 µM) was 0.362, the relative viability ([11]; first compound 0.4 µM) was 0.262 and the relative viability ([11]; first compound 1.265 µM) was 0.108. It also gave a relative viability ([11]; first compound 4 µM) of 0.107, a relative viability ([12]; first compound 0.04 µM) of 0.15 and a relative viability ([12]; first compound 0.1265 µM) of 0.204. For the same compound, the relative viability ([12]; first compound 0.4 µM) was 0.172, the relative viability ([12]; first compound 1.265 µM) was 0.154 and the relative viability ([12]; first compound 4 µM) was 0.179. It also gave a relative viability ([13]; first compound 0.04 µM) of 0.505, a relative viability ([13]; first compound 0.1265 µM) of 0.517 and a relative viability ([13]; first compound 0.4 µM) of 0.579. The relative viability ([13]; first compound 1.265 µM) was 0.299, the relative viability ([13]; first compound 4 µM) was 0.255 and the relative viability ([14]; first compound 0.04 µM) was 0.428. It also gave a relative viability ([14]; first compound 0.1265 µM) of 0.396, a relative viability ([14]; first compound 0.4 µM) of 0.346 and a relative viability ([14]; first compound 1.265 µM) of 0.174. For the same compound, the relative viability ([14]; first compound 4 µM) was 0.227, the relative viability ([15]; first compound 0.04 µM) was 0.354 and the relative viability ([15]; first compound 0.1265 µM) was 0.338. For the same compound, the relative viability ([15]; first compound 0.4 µM) was 0.333, the relative viability ([15]; first compound 1.265 µM) was 0.397 and the relative viability ([15]; first compound 4 µM) was 0.377. The relative viability ([16]; first compound 0.04 µM) was 0.383, the relative viability ([16]; first compound 0.1265 µM) was 0.368 and the relative viability ([16]; first compound 0.4 µM) was 0.373. For the same compound, the relative viability ([16]; first compound 1.265 µM) was 0.107, the relative viability ([16]; first compound 4 µM) was 0.159 and the relative viability ([17]; first compound 0.04 µM) was 0.268. It also gave a relative viability ([17]; first compound 0.1265 µM) of 0.274, a relative viability ([17]; first compound 0.4 µM) of 0.261 and a relative viability ([17]; first compound 1.265 µM) of 0.239. It also gave a relative viability ([17]; first compound 4 µM) of 0.235, a relative viability ([18]; first compound 0.04 µM) of 0.71 and a relative viability ([18]; first compound 0.1265 µM) of 0.791. For the same compound, the relative viability ([18]; first compound 0.4 µM) was 0.616, the relative viability ([18]; first compound 4 µM) was 0.731 and the relative viability ([19]; first compound 0.04 µM) was 0.954. It also gave a relative viability ([19]; first compound 0.1265 µM) of 0.825, a relative viability ([19]; first compound 0.4 µM) of 0.882 and a relative viability ([19]; first compound 1.265 µM) of 0.863. The relative viability ([19]; first compound 4 µM) was 0.702, the relative viability ([20]; first compound 0.04 µM) was 0.955 and the relative viability ([20]; first compound 0.1265 µM) was 0.907. It also gave a relative viability ([20]; first compound 0.4 µM) of 0.877, a relative viability ([20]; first compound 1.265 µM) of 1.09 and a relative viability ([20]; first compound 4 µM) of 1. It also gave a relative viability ([21]; first compound 0.04 µM) of 0.696, a relative viability ([21]; first compound 0.1265 µM) of 0.632 and a relative viability ([21]; first compound 0.4 µM) of 0.638. For the same compound, the relative viability ([21]; first compound 1.265 µM) was 0.422, the relative viability ([21]; first compound 4 µM) was 0.332 and the relative viability ([22]; first compound 0.04 µM) was 0.554. For the same compound, the relative viability ([22]; first compound 0.1265 µM) was 0.482, the relative viability ([22]; first compound 0.4 µM) was 0.509 and the relative viability ([22]; first compound 1.265 µM) was 0.484. The relative viability ([22]; first compound 4 µM) was 0.531, the relative viability ([23]; first compound 0.04 µM) was 0.215 and the relative viability ([23]; first compound 0.1265 µM) was 0.205. It also gave a relative viability ([23]; first compound 0.4 µM) of 0.226, a relative viability ([23]; first compound 1.265 µM) of 0.148 and a relative viability ([23]; first compound 4 µM) of 0.0909.
